The values that follow come from a melting point compilation (Tetko et al.; mined from patent text by program, amines drawn as free bases though some values may be those of a salt).

Regarding `COc1ccc(CNc2ccccc2C(=O)Nc2ccc(F)c(C(F)(F)F)c2)cn1`, the melting point (as a rule, the temperature, or range, at which the solid turns liquid) was in the range of 114 to 115 °C. Regarding `CCOC(=O)CCCCC(NS(=O)(=O)c1ccccc1)c1ccc2ccccc2c1` (stereo not given), the melting point lay within 81 to 84 °C. `O=[N+]([O-])c1cc(Cl)c(Oc2ccccc2)cc1NCc1cccc(C(F)(F)F)c1` displayed a melting point of 140 to 142 °C. Turning to `CCOC(=O)C(=Cc1c[nH]c2cc(C)ccc12)NC(C)=O`, the melting point lay in the range of 159 to 162 °C.

In turn, `Cc1cc(-c2c(F)cc3c(=O)c(Cc4c(O)cccc4O)cn(C4CC4)c3c2F)cc(C)n1` showed a melting point of 308 to 310 °C. For `CC(C)Nc1cccnc1N1CCN(C(=O)c2ccc(C(=O)N(CCO)CCO)cc2)CC1`, the melting point lay within 161 to 162 °C.

In turn, `CCCCCCCCCCCCCCCOc1ccc(C(C)=O)o1` showed a melting point of 67 to 68 °C. In the case of `CCCCCCCCCCCCCCOc1ccc(C(=O)OC)cc1OCCCCCCCCCCCCCC` it was 50 to 51 °C; in that of `CCCC(=NOCC)C1=C(O)CC(c2c(C)c3c(c(C)c2Cl)CC(C)(C)C3)CC1=O` (stereo not given), 93 to 94 °C. As for `CCOC(=O)c1cnc2c(N(C)Cc3ccccc3)cc(CN3CCOCC3)cc2c1O`, the melting point fell in the range of 151 to 153 °C.

In turn, `COC(=O)c1ccc2c(CBr)csc2c1` yielded a melting point of 108 to 110 °C. In the case of `CCOC(=O)N(C)CC(N)=S` it was 91 to 93 °C.

The molecule `Cc1ccc(/C=C/C(=O)N[C@@H]2N=C(c3ccccc3)c3ccccc3N(C)C2=O)cc1` came in with a melting point of 133 to 135 °C. For the molecule `Cc1nc2ccccc2c2ccc(F)cc12`, the melting point lay within 92 to 93 °C. Molecule `CC(C)(C)C(=O)Nc1ccc2c(c1)ncn1c(=O)c(C(=O)O)cnc21` gave a melting point of 252 to 256 °C.

With `Cc1nnc(-c2cc3c(OC[C@@H](O)CN4CCC(c5ccc6ccccc6c5)CC4)cccc3[nH]2)o1`, the melting point is 215 to 217 °C. In turn, `CC(=O)NC[C@H]1CN(c2cc(F)c(N3CCN(CCO)CC3)c(F)c2)C(=O)O1` came in with a melting point of 172 to 174 °C. In the case of `CC(C)(C)c1nc(C#N)nc(C(C)(C)C)c1O` it was 203 to 205 °C; in that of `O=S(=O)(Cl)C=Cc1ccc(Cl)c(Cl)c1`, 91 to 96 °C; in that of `CCOCC1(C)CCCSc2cc(C#Cc3ccc(C(=O)O)cc3)ccc21` (stereo not given), 154 to 155 °C. The figure for `COC(=O)C(c1ccccc1Cl)N1CCc2sc(OC(=O)C(C)(C)C)cc2C1` (stereo not given) is 118 to 120 °C; for `Cc1cccc(OCC(=S)NCCN2CCCC2)c1C` it is 62 to 64 °C; for `O=C1C(=O)c2ccccc2C2=C1SCC1(CCN(CC(O)c3ccccc3)CC1)O2` (stereo not given) it is 193 to 195 °C. On to `CCCCN1C[C@@H](C(=O)O)N(C(=O)[C@H](C)CSC(=O)c2ccccc2)C1=O`, for which the melting point was 119 °C. `CC1(n2ncc(-c3ccc(S(C)(=O)=O)cc3)c(-c3ccc(F)cc3)c2=O)CCCC1` yielded a melting point of 107 to 110 °C. As for `COc1cc(Cc2cc3cccc(-c4cccc(C(=O)NCCC#N)c4)c3s2)ccc1F`, the melting point was in the range of 158 to 159 °C.

Regarding `CC(C)c1cccc(C(C)C)c1NC(=O)Nc1nnn(CCCCCCCCCCCCO)n1`, the melting point fell in the range of 80 to 90 °C. In the case of `CCCCS(=O)Cc1ccc(CS(=O)CCCC)cc1` (stereo not given) it was 187 to 188 °C; in that of `Cc1ccc(C(=O)C2=C(O)C(=O)N(c3ccc(C)nn3)C2c2cccc(OC(C)C)c2)cc1` (stereo not given), 243 to 245 °C.

For `CN(C(=O)C1=NN(c2ccc(Cl)cc2)C(c2ccc(Cl)cc2)C1)c1ccc(C(F)(F)F)cc1` (stereo not given), the melting point was in the range of 181 to 183 °C. In the case of `Cc1ccc(F)cc1C(=O)N1Cc2cccnc2Nc2ccccc21` it was 138 to 140 °C. `Cc1ccc(S(=O)(=O)OC[C@H]2CCc3ccc4ccccc4c3O2)cc1` registered a melting point of 107 to 111 °C. In the case of `COc1cc(NC2CCN(S(=O)(=O)c3ccccc3)CC2)ccc1C(N)=O`, the melting point was in the range of 166 to 168 °C. Turning to `CCOC(=O)c1nc2c(=O)[nH]c3cc(C(F)(F)F)ccc3n2c1Cn1ccnc1C`, the melting point is > 250 °C. Consider `CC[C@@]1(O)C(=O)OCc2c1cc1n(c2=O)Cc2c-1nc1ccc(C)c3c1c2C(NC(C)=O)CN3` (stereo not given in full), for which the melting point fell in the range of 225 to 235 °C. The figure for `COc1cc2c(CCN)c(C)[nH]c2c(Cl)c1Cl` is 184 to 186 °C; for `Oc1cccc2c3ccccc3n(C3CCCCO3)c12` (stereo not given) it is 137 to 140 °C; for `Cc1nnc(CNc2c(C)cccc2C)o1` it is 134 to 135 °C. `O=c1[nH]nc2n1C=Cc1ccccc1C2c1ccccc1` (stereo not given) had a melting point of 258 to 260 °C. The figure for `Cc1cc(Cl)ccc1OCc1ccccc1C(O)c1nccn1C` (stereo not given) is 159 to 160 °C; for `O=C(O)Cc1cn(C(=O)c2cccc(C(F)(F)F)c2)c2cc(Cl)ccc12` it is 194 to 196 °C; for `O=[N+]([O-])c1cc(-c2nc3ccccc3s2)ccc1O` it is 214 to 215 °C. The figure for `CCC1(CC)OC(=O)N(c2cccc(Cl)c2)c2ccccc21` is 150 to 151 °C; for `CCN(CC)c1nc(C)nc(N)n1` it is 125 to 127 °C. Molecule `O=Cc1ccc2oc3ncccc3c(=O)c2c1` had a melting point of 233 to 235 °C.

Take `Oc1ccc(O)c2c1CC(O)C(O)C2` (stereo not given): the melting point fell in the range of 221 to 224 °C. The figure for `CS(=O)(=O)N1CCC(CO)CC1` is 96 to 97 °C; for `COC(=O)c1sc(C)c2[nH]c(C(F)(F)C(F)(F)C(F)(F)F)nc12` it is 147 to 148 °C; for `CC1C(=O)N2CCCC(C(=O)OC(C)(C)C)N2C1=O` (stereo not given) it is 127 to 128 °C. Turning to `CC(C)C1N(CC(N)=O)C(=O)CN1C(=O)CN` (stereo not given), the melting point is 205 to 211 °C.

In the case of `CSc1nc(C)cc(Cl)n1`, the melting point was 37 to 38 °C. For `O=C1c2cc3c(cc2CCC1NC(=O)C(F)(F)F)CCO3` (stereo not given), the melting point worked out at 208 °C. The figure for `Cc1cc(C)c2c(=O)n(CC(=O)N3CCOCC3)sc2n1` is 200 to 203 °C.

Take `Cc1cccc(C)c1Nc1nc(-c2nc3ccc(C(F)(F)F)cc3[nH]2)cs1`: the melting point is 250 to 251 °C.

Take `CCCCOCCOc1ccc(-c2cnc(N3CC(C)C(C)C3)c(/C=C(\C)C(=O)O)c2)cc1` (stereo not given): the melting point was in the range of 90 to 92 °C.

Molecule `COc1cccc2c1Sc1ccc(Cl)cc1C2` returned a melting point of 95 to 96 °C. Regarding `Cc1c(N)cccc1OC1CCN(C(=O)OC(C)(C)C)C1` (stereo not given), the melting point stood at 137 °C. Molecule `O=C(N[C@H]1CN2CCC1CC2)C(Cc1ccccc1)c1ccccc1` (stereo not given in full) returned a melting point of 142 °C.

For `CCOC(=O)N1CC[C@H](NC(=O)c2cc([N+](=O)[O-])c(Cl)cc2OC)[C@H](OC)C1` (relative stereo), the melting point came out at 181 °C. The figure for `COc1ccc2c(c1)CC(C(=O)O)O2` (racemic) is 98 to 100 °C; for `COC(=O)c1ccc(C(O)C#Cc2cc(-c3cccs3)c(OC)cc2OC)cc1` (stereo not given) it is 128 to 130 °C; for `COC(=O)c1c(C(=O)OC)c(-c2ccccc2)c(C(=O)O)c(C(=O)O)c1-c1ccccc1` it is 196 to 198 °C. The figure for `N#Cc1cccc(C=Cc2ccc(Cl)cc2)n1` is 113 to 115 °C; for `C[C@@H]1C[C@H](OC(=O)C(C)(C)Oc2ccc(C(=O)c3ccc(Cl)cc3)cc2)CC(C)(C)C1` (relative stereo) it is 65 °C. The figure for `O=C(OCc1ccccc1)OCC1OC(n2cc(F)c(=O)[nH]c2=O)C(O)C1O` (stereo not given) is 66 to 68 °C; for `COC(=O)[C@H](Cc1ccc(OCCN2CCCCCC2)cc1)NC(=O)[C@@H]1CCCN1S(=O)(=O)c1ccc(C)cc1` it is 60 to 65 °C. As for `Cc1oc2c(NC(=O)c3c(Cl)ccc(O)c3Cl)cccc2c1C`, the melting point lay in the range of 192 to 194 °C. The figure for `CCC(=O)N1Cc2cc(OC)ccc2C(Cc2c(Cl)cncc2Cl)=N1` is 195 to 197 °C; for `CCCCCCC/C=C/C(=O)Nc1ccccc1` it is 54 to 55 °C; for `COc1cccc2c1cc(C(=O)O)n2CC(=O)OC(C)(C)C` it is 222 to 224 °C. The molecule `COc1ccc(C2CCCC(=O)N2c2ccccc2)cc1` (stereo not given) registered a melting point of 77 to 78 °C. In the case of `COCNC(=S)n1nc(Oc2c(Cl)cc(C(F)(F)F)cc2Cl)cc1C` it was 95 to 96 °C.

On to `NC(=O)c1cc(-c2ccncc2)c[nH]c1=O`, for which the melting point is > 300 °C. Consider `OCCOc1cn(-c2ccc(F)cc2)c2cc(Cl)ccc12`, for which the melting point fell in the range of 97 to 98 °C. With `CNC(=O)c1ccc(O[C@H]2CC[C@@H](NC(=O)Nc3ccc(OC(F)(F)F)cc3)CC2)cc1`, the melting point was 207 to 208 °C. The figure for `COc1ccc2nc3ccc(C(=O)O)cn3c(=O)c2c1` is 278 to 290 °C; for `CC(=O)NC[C@H]1CN(c2ccc(N3CCC(n4nnc(N5CCN(C)CC5)n4)CC3)c(F)c2)C(=O)O1` it is 174 to 176 °C; for `CCc1c(C)nc(-c2ncc([N+](=O)[O-])n2C)nc1C` it is 110 °C.

The molecule `COC(=O)C(Oc1ccc(Cl)cc1)c1ccc(Oc2ccc(Cl)cc2)cc1` (stereo not given) had a melting point of 100 to 102 °C. `CCCc1nn(-c2ccc(C(F)(F)F)cn2)cc1CCCCOc1nn(-c2ccccc2)cc1CC(=O)O` registered a melting point of 114 to 115 °C. Regarding `CC(C)C(=O)Nc1ccn(C)c1`, the melting point is 125 to 126 °C. Turning to `Cn1c(=O)cc(-c2cccc(Cl)c2)c2cc(C(O)c3cncn3Cc3ccc(C#N)cc3)ccc21` (stereo not given), the melting point is 150 °C.

For the molecule `O=C1NC2CCC1C(O)C2` (stereo not given), the melting point is 115 to 120 °C. The molecule `Cc1nc2cc(Cl)ccc2c2ccccc12` registered a melting point of 129 to 131 °C. The molecule `Cc1c(-c2cccc(F)c2)nc2n1CCc1ccccc1C2OC1CCN(C)CC1` (stereo not given) came in with a melting point of 132 °C. `COC(=O)Cc1cc(C(=O)c2ccc3cc(-c4ccccc4)[nH]c3c2)sc1-c1ccccc1`: the melting point was in the range of 183 to 185 °C. The figure for `CC(C)COc1ccc2c(n1)CC(c1ccccc1)CC2=O` (stereo not given) is 157 to 158 °C; for `CN(C)C=C(C(=O)c1ccccc1)C(=O)c1ccccc1` it is 120 °C. The molecule `c1ccc(CNCc2n[nH]c(-c3ccc(CN4CCCCCC4)s3)n2)cc1` had a melting point of 155 to 157 °C. `O=C1Nc2ccccc2N(C(=O)CN2C(=O)CCCC2=O)C2CCC(Cc3ccccc3)C12` (stereo not given) gave a melting point of 220 to 221 °C.
